Data: patent US9073855B2, “BCL-2 selective apoptosis-inducing agents for the treatment of cancer and immune diseases” (AbbVie Inc., priority 2008, dated 2015)

Key:
[1] = molecular target: GST-Bcl-XL (Homo sapiens, UniProt Q07817); assay: TR-FRET binding assay, GST-Bcl-XL with F-Bak peptide probe; conditions: TR-FRET Binding Affinity, GST-Bcl-XL, F-Bak peptide probe
In short: (§1)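 Ki was derived with Wang's equation for competitive binding of two ligands. The read-out was time-resolved fluorescence after a 3 h room-temperature incubation, using a Tb-labelled antibody donor and the F-Bak peptide acceptor (excitation 340/35 nm). Test compounds entered as DMSO serial dilutions starting at 50 μM, which was the 2× concentration.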

[2] = molecular target: GST-Bcl-2 (Homo sapiens, UniProt P10415); assay: TR-FRET binding assay, GST-Bcl-2 with F-Bak peptide probe; conditions: TR-FRET Binding Affinity, GST-Bcl-2, F-Bak peptide probe
In short: as §1

[3] = tested on: Canine platelets; assay: Platelet cell viability assay (platelet-rich plasma, Cell Titer Glo); assay type: cell-based; conditions: Canis lupus familiaris, 5 h, isolated canine platelets ex vivo, five hours at 37° C.
Description: After the incubation, platelets were equilibrated to room temperature for 20 minutes and then an equal volume of Cell Titer Glo reagent (Promega Corporation) was added. Samples were mixed for two minutes and then allowed to equilibrate for an additional 10 minutes at room temperature. The luminescence generated from the samples was quantitated using an LJL Analyst plate reader.
The effect of compounds on platelet survival can be directly evaluated ex vivo by examining the viability of isolated canine platelets in the presence of various concentrations of compound.

[4] = tested on: FL5.12/Bcl-2 cells; assay: FL5.12/Bcl-2 cell viability assay under IL-3 withdrawal (CellTitre Glo); assay type: cell-based, murine; conditions: Mus musculus, IL-3 withdrawn 48 hrs, then 24 hrs with compound
In short: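 IL-3 withdrawal 48 hrs (no WEHI-3B medium), then compound 24 hrs, various concentrations; 37° C, 5% CO2; readout CellTitre Glo. Murine prolymphocytic FL5.12 stably overexpressing Bcl-2.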

Chain of GST-Bcl-XL (Q07817 whole entry): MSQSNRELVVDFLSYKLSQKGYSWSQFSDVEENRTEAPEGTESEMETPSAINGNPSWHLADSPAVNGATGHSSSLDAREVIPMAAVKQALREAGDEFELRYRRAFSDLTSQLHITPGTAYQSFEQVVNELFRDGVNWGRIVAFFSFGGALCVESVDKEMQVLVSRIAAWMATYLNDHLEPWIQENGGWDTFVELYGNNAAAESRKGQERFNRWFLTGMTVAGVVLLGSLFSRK
Chain of GST-Bcl-2 (P10415 whole entry): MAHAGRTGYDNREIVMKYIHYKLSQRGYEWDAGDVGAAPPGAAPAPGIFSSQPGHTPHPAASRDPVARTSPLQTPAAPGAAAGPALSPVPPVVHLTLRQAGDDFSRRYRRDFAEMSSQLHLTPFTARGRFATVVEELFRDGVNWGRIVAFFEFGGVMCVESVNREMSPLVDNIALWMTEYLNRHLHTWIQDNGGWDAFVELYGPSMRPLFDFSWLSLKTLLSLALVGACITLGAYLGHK

| SMILES | Ki [1] [nM] | Ki [2] [nM] | EC50 [3] [nM] | EC50 [4] [nM] |
| --- | --- | --- | --- | --- |
| O=C(NS(=O)(=O)c1ccc(NCC2CCOCC2)c([N+](=O)[O-])c1)c1ccc(N2CCN(Cc3c(OCCN4CCOCC4)cccc3-c3ccc(Cl)cc3)CC2)cc1Oc1cccc2[nH]ccc12 [Example 131, 4-(4-{[4′-chloro-3-(2-morpholin-4-ylethoxy)-1,1′-biphenyl-2-yl]methyl}piperazin-1-yl)-2-(1H-indol-4-yloxy)-N-({3-nitro-4-[(tetrahydro-2H-pyran-4-ylmethyl)amino]phenyl}sulfonyl)benzamide] | 243 | 0.106 | > 50000 | 31 |
| CC1(C)CCC(CN2CCN(c3ccc(C(=O)NS(=O)(=O)c4ccc(NCCCN5CCCC5)c([N+](=O)[O-])c4)c(Oc4cccc5[nH]ccc45)c3)CC2)=C(c2ccc(C(F)(F)F)cc2)C1 [Example 69, 4-[4-({4,4-dimethyl-2-[4-(trifluoromethyl)phenyl]cyclohex-1-en-1-yl}methyl)piperazin-1-yl]-2-(1H-indol-4-yloxy)-N-({3-nitro-4-[(3-pyrrolidin-1-ylpropyl)amino]phenyl}sulfonyl)benzamide] | 92.1 | 1.25 | > 50000 | 75 |
| CN1CCC(CNc2ccc(S(=O)(=O)NC(=O)c3ccc(N4CCN(CC5=C(c6ccc(Cl)cc6)CC(C)(C)CC5)CC4)cc3Oc3cccc4[nH]ccc34)cc2[N+](=O)[O-])CC1 [Example 105, 4-(4-{[2-(4-chlorophenyl)-4,4-dimethylcyclohex-1-en-1-yl]methyl}piperazin-1-yl)-2-(1H-indol-4-yloxy)-N-[(4-{[(1-methylpiperidin-4-yl)methyl]amino}-3-nitrophenyl)sulfonyl]benzamide] | 5.02 | 0.08 | 30300 | 13 |
| O=C(NS(=O)(=O)c1ccc(NCCCN2CCCC2)c([N+](=O)[O-])c1)c1ccc(N2CCN(Cc3cc(OCCN4CCOCC4)ccc3-c3ccc(Cl)cc3)CC2)cc1Oc1ccc2[nH]ccc2c1 [Example 136, 4-(4-{[4′-chloro-4-(2-morpholin-4-ylethoxy)-1,1′-biphenyl-2-yl]methyl}piperazin-1-yl)-2-(1H-indol-5-yloxy)-N-({3-nitro-4-[(3-pyrrolidin-1-ylpropyl)amino]phenyl}sulfonyl)benzamide] | 61.9 | 0.259 | > 50000 | 190 |
| CN1CCC(Nc2ccc(S(=O)(=O)NC(=O)c3ccc(N4CCN(CC5=C(c6ccc(Cl)cc6)CC(C)(C)CC5)CC4)cc3Oc3ccccc3)cc2[N+](=O)[O-])CC1 [Example 152, 4-(4-{[2-(4-chlorophenyl)-4,4-dimethylcyclohex-1-en-1-yl]methyl}piperazin-1-yl)-N-({4-[(1-methylpiperidin-4-yl)amino]-3-nitrophenyl}sulfonyl)-2-phenoxybenzamide] | 0.412 | 0.026 | 2660 | 9 |
| CN(C)CCCNc1ccc(S(=O)(=O)NC(=O)c2ccc(N3CCN(CC4=C(c5ccc(Cl)cc5)CC(C)(C)CC4)CC3)cc2Oc2ccc3[nH]ccc3c2)cc1[N+](=O)[O-] [Example 53, 4-(4-{[2-(4-chlorophenyl)-4,4-dimethylcyclohex-1-en-1-yl]methyl}piperazin-1-yl)-N-[(4-{[3-(dimethylamino)propyl]amino}-3-nitrophenyl)sulfonyl]-2-(1H-indol-5-yloxy)benzamide] | 4.85 | 0.081 | 18300 | 11 |
| CN(C)CCCOc1ccc(S(=O)(=O)NC(=O)c2ccc(N3CCN(CC4=C(c5ccc(Cl)cc5)CC(C)(C)CC4)CC3)cc2Oc2cccc3[nH]ccc23)cc1[N+](=O)[O-] [Example 106, 4-(4-{[2-(4-chlorophenyl)-4,4-dimethylcyclohex-1-en-1-yl]methyl}piperazin-1-yl)-N-({4-[3-(dimethylamino)propoxy]-3-nitrophenyl}sulfonyl)-2-(1H-indol-4-yloxy)benzamide] | – | – | 15200 | 9 |
| COc1ccc(C2=C(CN3CCN(c4ccc(C(=O)NS(=O)(=O)c5ccc(NCCCN6CCCC6)c([N+](=O)[O-])c5)c(Oc5cccc6[nH]ccc56)c4)CC3)CCC(C)(C)C2)cc1 [Example 68, 2-(1H-indol-4-yloxy)-4-(4-{[2-(4-methoxyphenyl)-4,4-dimethylcyclohex-1-en-1-yl]methyl}piperazin-1-yl)-N-({3-nitro-4-[(3-pyrrolidin-1-ylpropyl)amino]phenyl}sulfonyl)benzamide] | 14 | 1.23 | > 50000 | 44 |
| CN(C)CCOc1ccc(-c2ccc(Cl)cc2)c(CN2CCN(c3ccc(C(=O)NS(=O)(=O)c4ccc(NCC5CCOCC5)c([N+](=O)[O-])c4)c(Oc4ccc5[nH]ccc5c4)c3)CC2)c1 [Example 126, 4-[4-({4′-chloro-4-[2-(dimethylamino)ethoxy]-1,1′-biphenyl-2-yl}methyl)piperazin-1-yl]-2-(1H-indol-5-yloxy)-N-({3-nitro-4-[(tetrahydro-2H-pyran-4-ylmethyl)amino]phenyl}sulfonyl)benzamide] | 163 | 0.012 | > 50000 | 31 |
| CN1CCC(Nc2ccc(S(=O)(=O)NC(=O)c3ccc(N4CCN(CC5=C(c6ccc(Cl)cc6)CCCCC5)CC4)cc3Oc3ccc4[nH]ccc4c3)cc2[N+](=O)[O-])CC1 [Example 151, 4-(4-{[2-(4-chlorophenyl)cyclohept-1-en-1-yl]methyl}piperazin-1-yl)-2-(1H-indol-5-yloxy)-N-({4-[(1-methylpiperidin-4-yl)amino]-3-nitrophenyl}sulfonyl)benzamide] | > 660 | 0.162 | 31400 | 49 |
| CN(C)CCOc1ccc(-c2ccc(Cl)cc2)c(CN2CCN(c3ccc(C(=O)NS(=O)(=O)c4ccc(NC5CCN(CC(F)(F)F)CC5)c([N+](=O)[O-])c4)c(Oc4ccccc4)c3)CC2)c1 [Example 137, 4-[4-({4′-chloro-4-[2-(dimethylamino)ethoxy]-1,1′-biphenyl-2-yl}methyl)piperazin-1-yl]-N-[(3-nitro-4-{[1-(2,2,2-trifluoroethyl)piperidin-4-yl]amino}phenyl)sulfonyl]-2-phenoxybenzamide] | 16 | 0.305 | > 50000 | 281 |
| CN(C)CCOc1ccc(-c2ccc(Cl)cc2)c(CN2CCN(c3ccc(C(=O)NS(=O)(=O)c4ccc(NCCCN5CCCC5)c([N+](=O)[O-])c4)c(Oc4ccccc4)c3)CC2)c1 [Example 121, 4-[4-({4′-chloro-4-[2-(dimethylamino)ethoxy]-1,1′-biphenyl-2-yl}methyl)piperazin-1-yl]-N-({3-nitro-4-[(3-pyrrolidin-1-ylpropyl)amino]phenyl}sulfonyl)-2-phenoxybenzamide] | 0.388 | 0.001 | 309 | 38 |
| CN1CCC(Nc2ccc(S(=O)(=O)NC(=O)c3ccc(N4CCN(CC5=C(c6ccc(Cl)cc6)CC(C)(C)CC5)CC4)cc3Oc3ccc4[nH]ccc4c3)cc2[N+](=O)[O-])CC1 [Example 98, 4-(4-{[2-(4-chlorophenyl)-4,4-dimethylcyclohex-1-en-1-yl]methyl}piperazin-1-yl)-2-(1H-indol-5-yloxy)-N-({4-[(1-methylpiperidin-4-yl)amino]-3-nitrophenyl}sulfonyl)benzamide] | > 660 | – | 17900 | 4 |
| CN(C)CCOc1cccc(-c2ccc(Cl)cc2)c1CN1CCN(c2ccc(C(=O)NS(=O)(=O)c3ccc(NCC4CCOCC4)c([N+](=O)[O-])c3)c(Oc3ccc4[nH]ccc4c3)c2)CC1 [Example 129, 4-[4-({4′-chloro-3-[2-(dimethylamino)ethoxy]-1,1′-biphenyl-2-yl}methyl)piperazin-1-yl]-2-(1H-indol-5-yloxy)-N-({3-nitro-4-[(tetrahydro-2H-pyran-4-ylmethyl)amino]phenyl}sulfonyl)benzamide] | – | – | > 50000 | 21 |
| CN1CCC(Nc2ccc(S(=O)(=O)NC(=O)c3ccc(N4CCN(CC5=C(c6ccc(Cl)cc6)CCC5)CC4)cc3Oc3cccc4[nH]ccc34)cc2[N+](=O)[O-])CC1 [Example 148, 4-(4-{[2-(4-chlorophenyl)cyclopent-1-en-1-yl]methyl}piperazin-1-yl)-2-(1H-indol-4-yloxy)-N-({4-[(1-methylpiperidin-4-yl)amino]-3-nitrophenyl}sulfonyl)benzamide] | > 660 | 2.89 | 19800 | – |
| CN1CCC(Nc2ccc(S(=O)(=O)NC(=O)c3ccc(N4CCN(CC5=C(c6ccc(Cl)cc6)CC(C)(C)CC5)CC4)cc3Oc3ccc4[nH]ccc4c3)cc2S(=O)(=O)C(F)(F)F)CC1 [Example 76, 4-(4-{[2-(4-chlorophenyl)-4,4-dimethylcyclohex-1-en-1-yl]methyl}piperazin-1-yl)-2-(1H-indol-5-yloxy)-N-({4-[(1-methylpiperidin-4-yl)amino]-3-[(trifluoromethyl)sulfonyl]phenyl}sulfonyl)benzamide] | 3.29 | – | 8660 | 39 |
